Laboratory results reported in patent publication US7307166B1, “Oxpurine nucleosides and their congeners, and acyl, derivatives thereof, for improvement of hematopoiesis” (Wellstat Therapeutics Corporation, priority 1987, dated 2007).

Tests used:
[1] = test system: IL-3-dependent bone marrow cells; experiment: Apoptosis of IL-3-dependent bone marrow cells deprived of IL-3 (trypan blue exclusion); format: cell-based, mouse; details: 10 micrograms per milliliter
Experimental: Bone marrow cells were obtained by flushing the femurs of three male B6D2F1 mice. The cells were plated at 5.0×10^5/ml in MEM plus 10% fetal calf serum and 25 Units/ml of recombinant IL-3 for 24-48 hours. Non-adherent cells were then separated from adherent cells and maintained for an additional twelve days. IL-3 washed from cells, and cells were plated in MEM plus 10% fetal calf serum in the presence or absence of IL-3 and with or without the addition of palmitoyldeoxyguanosine (10 micrograms per milliliter) or deoxyguanosine (10 micrograms per milliliter). Cells were counted using the trypan blue exclusion method, and the percent of dead cells (trypan blue positive) was determined at 24, 40, 60 and 84 hours following the wash.

FDCPmix cells = experiment: FDCPmix cell proliferation in the presence of IL-3 (MTT assay); format: cell-based
Experimental: The FDCPmix cell line was used as a suitable in vitro model for predicting the effects of hematopoietic factors on pluripotential stem cells. These cells can be maintained in an undifferentiated state in the presence of IL-3 or undergo multi-lineage development in the presence of specific hematopoietic growth factors.
This level of proliferation (100%) served as the control value. Inhibition of proliferation by test compounds was represented as a percent of control.
FDCPmix cells were plated at a density of 5×10^4 cells per well in 96-well plates (5×10^5/ml) using IMDM medium plus 10% fetal bovine serum. […] Test compounds were added at a decreasing concentrations ranging from 10 micrograms/ml down to 1 nanogram/ml. The test compounds included: 3′,5′-O—N^2-tripalmitoyl-2′-deoxyguanosine, 3′,5′-di-O-palmitoyl-2′-deoxy-guanosine, 3′,5′-O—N^2-trioctanoyl-2′-deoxyguanosine, 3′,5′-di-O-octanoyl-2′-deoxyguanosine, and 3′,5′-o-N^2-trioleyl-2′-deoxy-guanosine.

interleukin-1-alpha = experiment: LPS-induced elevation of serum interleukin-1-alpha; format: in vivo, mouse; details: PdG 25 mg/kg i.p.
Experimental: (§1) Sixty-three female Balb/C mice were randomly assigned to one of three groups. The animals in one group received a single daily dose of N^2,3′,5′-tripalmitoyldeoxyguanosine (PdG) (25 mg/kg, i.p.), while a second group received a single daily dose of the PdG treatment vehicle (control). The third group was left untreated. On the fourth day 100 μg salmonella typhimurium LPS was administered to all three groups. Serum samples were taken just prior to LPS administration (t=0) and at two, four, six, eight, ten, twelve, sixteen, and twenty hours after LPS administration. The samples were then frozen until the time of assay. Serum levels of TNF-alpha, and IFN-gamma were measured by ELISA.
(§2) PdG also attenuated LPS-induced elevation of serum interleukin-1-alpha and interleukin-6.

interleukin-6 = experiment: LPS-induced elevation of serum interleukin-6; format: in vivo, mouse; details: PdG 25 mg/kg i.p.
Experimental: as §1, §2

Balb/C female mice = experiment: Hematopoietic recovery after cyclophosphamide in mice (spleen weight, blood cell counts); format: in vivo, mouse

Structure (SMILES) | % Dead Cells ([1]; 40 hr after IL-3 wash) [%] | % Dead Cells ([1]; 60 hr after IL-3 wash) [%] | % Dead Cells ([1]; 84 hr after IL-3 wash) [%] | Cell proliferation (% of Control) (FDCPmix cells; Dose 10 ng) | Cell proliferation (% of Control) (FDCPmix cells; Dose 39 ng) | Cell proliferation (% of Control) (FDCPmix cells; Dose 156 ng) | Cell proliferation (% of Control) (FDCPmix cells; Dose 625 ng) | Cell proliferation (% of Control) (FDCPmix cells; Dose 2.5 μg) | Cell proliferation (% of Control) (FDCPmix cells; Dose 10 μg, 48 hours, IL-3 25 units/ml) | LPS-induced elevation of serum interleukin-1-alpha (interleukin-1-alpha) | LPS-induced elevation of serum interleukin-6 (interleukin-6) | spleen weight (Balb/C female mice; Ex 38: day 7 after CP, guanosine 5, acyl derivatives 2.5 μmoles/mouse/day in 0.2% Tween 80 i.p. 6 days, Tween 80 0.2%) | total neutrophils (Balb/C female mice; Ex 41: day 7 after CP, treatment on only days 1 and 2, vs saline or Tween 80) | platelet number (Balb/C female mice; Ex 47: day 10 after CP, 2.5 μmoles/mouse/day)
CCCCCCCCCCCCCCCC(=O)Nc1nc2c(ncn2[C@H]2C[C@H](OC(=O)CCCCCCCCCCCCCCC)[C@@H](COC(=O)CCCCCCCCCCCCCCC)O2)c(=O)[nH]1 [PdG, 3′,5′-O-N^2-tripalmitoyl-2′-deoxyguanosine] | 18.0 ± 3.0 | 16.0 ± 1.5 | 15.3 ± 5.5 | 78 ± 1 % of Control | 76 ± 2 % of Control | 72 ± 3 % of Control | 60 ± 2 % of Control | 51 ± .7 % of Control | 51 ± .6 % of Control | attenuated | attenuated | – | – | –
CCCCCCCCCCCCCCCC(=O)OC[C@H]1O[C@@H](n2cnc3c(=O)[nH]c(N)nc32)[C@H](O)[C@@H]1O | – | – | – | – | – | – | – | – | – | – | – | significantly larger spleens | significant increase | significantly greater
